# Test results: patent US8158657B2, “Heterocycles substituted pyridine derivatives and antifungal agent containing thereof” (Eisai R&D Management Co., Ltd., priority 2005, dated 2012)
# Tests used:
# [1] = system: C. albicans CAF2-1 strain; experiment: Anti-Candida activity, MIC measurement; assay type: cell-based; conditions: CAF21STRAIN, C. albicans CAF2-1, RPMI1640, 42-48 hours at 35° C., visual inspection, read-out: Anti-Candida Activity (minimum inhibitory concentration, MIC)
# Protocol: (§1) For the C. albicans CAF2-1 strain, a fungal suspension from a standing culture for 48 hours at 30° C. in a Sabouraud dextrose liquid culture medium (SDB) was diluted with RPMI1640 medium to adjust a fungal suspension of 1.2×10^3 cells/mL. For the A. fumigatus Tsukuba strain, −80° C. stored strain was diluted with RPMI1640 medium to adjust to a fungal suspension of 4.5×10^3 cells/mL.
# (§2) Using a U-bottomed 96 well plate, 8 samples/plate (A to H) of sample dilution solutions were prepared. On the 2nd to 12th rows were dispensed 10 μL of dimethyl sulfoxide solution. Weighted sample was dissolved in dimethyl sulfoxide to prepare a 2.5 mg/mL solution, 20 μL of this solution was added to the first row of the prepared plate, and 12 steps of two-fold step dilutions (10 μL of solution+10 μL of dimethyl sulfoxide solution) were performed on the plate. This sample dilution solution was dispensed in the amount of 1 μL to a flat-bottomed 96 well plate for MIC measurement to prepare a sample dilution plate.
# (§3) The fungal suspension prepared in (1) was used in the amount of 99 μL/well to inoculate the flat-bottomed 96 well plate containing 1 μL/well of the test compound dilution prepared in (2), and a standing culture was carried out aerobically for 42-48 hours at 35° C.
# [2] = system: A. fumigatus Tsukuba strain; experiment: Anti-Aspergillus activity, MIC measurement; assay type: cell-based; conditions: RPMI1640, 42-48 hours at 35° C., visual inspection, read-out: Anti-Aspergillus Activity (minimum inhibitory concentration, MIC)
# Protocol: as §1, §2, §3
SMILES,MIC [1] [µg/mL],MIC [2] [µg/mL]
"Nc1ncccc1-c1cc(Cc2cccc(OCc3ccccc3)c2)no1 [Example 61, 3-(3-(3-Benzyloxy-benzyl)-isoxazol-5-yl)-pyridin-2-ylamine]",0.2,0.39
"Nc1ncccc1-c1cc(Cc2ccc(Sc3ccccc3)nc2)no1 [Example 97, 3-(3-(6-Phenylsulfanyl-pyridin-3-ylmethyl)-isoxazol-5-yl)-pyridin-2-ylamine]",0.39,0.2
"Nc1ncccc1-c1cc(Cc2ccc(Oc3ccc(F)cc3)s2)no1 [Example 91, 3-(3-(5-(4-Fluoro-phenoxy)-thiophen-2-ylmethyl)-isoxazol-5-yl)-pyridin-2-ylamine]",0.2,0.1
"Nc1nc(NCCO)ccc1-c1cc(Cc2ccc(OCc3ccccc3)nc2)no1 [Example 225, 2-(6-Amino-5-(3-(6-benzyloxy-pyridin-3-ylmethyl)-isoxazol-5-yl)-pyridin-2-ylamino)-ethanol]",0.78,3.13
"Nc1ncccc1-c1cnn(Cc2ccc(OCc3ccccc3)nc2)c1 [Example 191, 3-(1-(6-Benzyloxy-pyridin-3-ylmethyl)-1H-pyrazol-4-yl)-pyridin-2-ylamine]",0.2,0.39
"Nc1ncccc1-c1cnn(Cc2ccc(COC3CCC3)cc2)c1 [Example 197, 3-(1-(4-Cyclobutoxymethyl-benzyl)-1H-pyrazol-4-yl)-pyridin-2-ylamine]",3.13,1.56
"Nc1ncccc1-c1cc(Cc2cccc(Oc3ccccc3)c2)no1 [Example 64, 3-(3-(3-Phenoxy-benzyl)-isoxazol-5-yl)-pyridin-2-ylamine]",0.2,0.78
"Nc1ncccc1-c1cc(Cc2ccc(NCc3ccccc3)cc2)no1 [Example 68, 3-(3-(4-Benzylamino-benzyl)-isoxazol-5-yl)-pyridin-2-ylamine]",0.1,0.39
"Nc1ccc(-c2cc(Cc3ccc(Oc4cncc(Cl)n4)cc3)no2)c(N)n1 [Example 215, 3-(3-(4-(6-Chloro-pyrazin-2-yloxy)-benzyl)-isoxazol-5-yl)-pyridin-2,6-diamine]",0.39,0.78
Cc1nc(N)ccc1-c1cc(Cc2ccc(COc3ccccn3)cc2)no1 [Example 187],1.56,0.78
COCc1ccc(-c2cc(Cc3ccc(Cc4ccc(C)o4)cc3)no2)c(N)n1 [Example 165],0.78,1.56
"Nc1ccc(-c2cc(Cc3ccc(COc4cc(F)ccn4)cc3)no2)c(N)n1 [Example 117, 3-(3-(4-(4-Fluoro-pyridin-2-yloxymethyl)-benzyl)-isoxazol-5-yl)-pyridin-2,6-diamine]",1.56,0.78
"C#Cc1cccc(COc2ccc(Cc3cc(-c4ccc(N)nc4N)on3)cc2)c1 [Example 214, 3-(3-(4-(3-Ethynyl-benzyloxy)-benzyl)-isoxazol-5-yl)-pyridin-2,6-diamine]",0.39,0.39
"Nc1ccc(-c2cc(Cc3ccc(OCc4ccc(Cl)cn4)cc3)no2)c(N)n1 [Example 122, 3-(3-(4-(5-Chloro-pyridin-2-ylmethoxy)-benzyl)-isoxazol-5-yl)-pyridin-2,6-diamine]",1.56,0.78
"Nc1ccc(-c2cc(Cc3ccc(OCc4ccccc4)cc3)no2)cn1 [Example 28, 5-(3-(4-Benzyloxy-benzyl)-isoxazol-5-yl)-pyridin-2-ylamine]",> 25,0.39
"Nc1ccc(-c2cc(Cc3ccc(OC4CCCC4)cc3)no2)c(N)n1 [Example 137, 3-(3-(4-Cyclopentyloxy-benzyl)-isoxazol-5-yl)-pyridin-2,6-diamine]",0.78,1.56
"c1ccc(COc2ccc(Cc3cc(-c4cccnc4)on3)cc2)cc1 [Example 201, 3-(3-(4-Benzyloxy-benzyl)-isoxazol-5-yl)-pyridine]",0.78,0.39
"COc1cccc(COc2ccc(Cc3cc(-c4ccc(N)nc4N)on3)cc2)n1 [Example 163, 3-(3-(4-(6-Methoxy-pyridin-2-ylmethoxy)-benzyl)-isoxazol-5-yl)-pyridin-2,6-diamine]",3.13,1.56
"CCCCOCc1ccc(Cc2cc(-c3cccnc3N)on2)cc1 [Example 4, 3-(3-(4-Butoxymethyl-benzyl)-isoxazol-5-yl)-pyridin-2-ylamine]",0.2,0.39

SMILES,MIC [1] [µg/mL],MIC [2] [µg/mL]
"Nc1ncccc1-c1cnn(Cc2ccc(Oc3ccccc3)nc2)c1 [Example 193, 3-(1-(6-Phenoxy-pyridin-3-ylmethyl)-1H-pyrazol-4-yl)-pyridin-2-ylamine]",0.78,0.78
"Nc1ccc(-c2cnn(Cc3ccc(Oc4ccccc4)nc3)c2)c(N)n1 [Example 200, 3-(1-(6-Phenoxy-pyridin-3-ylmethyl)-1H-pyrazol-4-yl)-pyridin-2,6-diamine]",3.13,3.13
"Nc1ccc(-c2cc(Cc3ccc(Oc4ccc(F)cc4)nc3)no2)cn1 [Example 186, 5-(3-(6-(4-Fluoro-phenoxy)-pyridin-3-ylmethyl)-isoxazol-5-yl)-pyridin-2-ylamine]",3.13,0.78
"Cc1ccc(OCc2ccc(Cc3cc(-c4ccc(N)nc4N)on3)cc2)nc1 [Example 103, 3-(3-(4-(5-Methyl-pyridin-2-yloxymethyl)-benzyl)-isoxazol-5-yl)-pyridin-2,6-diamine]",1.56,0.78
"Nc1ncccc1-c1cc(Cc2ccc(OCc3nccs3)cc2)no1 [Example 88, 3-(3-(4-(Thiazol-2-ylmethoxy)-benzyl)-isoxazol-5-yl)-pyridin-2-ylamine]",0.2,0.2
"Nc1ncccc1-c1cc(Cc2ccc(OCc3ccc(F)cn3)c(F)c2)no1 [Example 94, 3-(3-(3-Fluoro-4-(5-fluoro-pyridin-2-ylmethoxy)-benzyl)-isoxazol-5-yl)pyridin-2-ylamine]",0.78,0.39
"Nc1ncc(F)cc1-c1cc(Cc2ccc(OCc3ccc(F)cn3)cc2)no1 [Example 174, 5-Fluoro-3-(3-(4-(5-fluoro-pyridin-2-ylmethoxy)-benzyl)-isoxazol-5-yl)pyridin-2-ylamine]",6.25,1.56
"Nc1ncccc1-c1cc(Cc2ccc(OCc3ccc(F)cc3F)nc2)no1 [Example 90, 3-(3-(6-(2,4-Difluoro-benzyloxy)-pyridin-3-ylmethyl)-isoxazol-5-yl)-pyridin-2-ylamine]",1.56,0.39
"Nc1ncccc1-c1cc(Cc2ccc(CCc3ccco3)cc2)no1 [Example 80, 3-(3-(4-(2-Furan-2-yl-ethyl)-benzyl)-isoxazol-5-yl)-pyridin-2-ylamine]",0.2,0.78
"Nc1ccc(-c2cc(Cc3ccc(OCc4ccc(F)cc4)cc3)no2)c(N)n1 [Example 20, 3-(3-(4-(4-Fluoro-benzyloxy)-benzyl)-isoxazol-5-yl)-pyridin-2,6-diamine]",0.78,0.2
"Nc1ncc(F)cc1-c1cc(Cc2ccc(OCc3ccccc3)cc2)no1 [Example 173, 3-(3-(4-Benzyloxy-benzyl)-isoxazol-5-yl)-5-fluoro-pyridin-2-ylamine]",1.56,0.78
"Nc1ccc(-c2cc(Cc3ccn(Cc4cccc(F)c4)c3)no2)c(N)n1 [Example 160, 3-(3-(1-(3-Fluoro-benzyl)-1H-pyrrol-3-ylmethyl)-isoxazol-5-yl)-pyridin-2,6-diamine]",0.39,0.78
"Nc1ccc(-c2cc(Cc3ccc(OCc4cc(Cl)ccn4)cc3)no2)cn1 [Example 183, 5-(3-(4-(4-Chloro-pyridin-2-ylmethoxy)-benzyl)-isoxazol-5-yl)-pyridin-2-ylamine]",0.2,0.78
"Nc1ccc(-c2cc(Cc3ccc(COc4ccccn4)cc3F)no2)c(N)n1 [Example 211, 3-(3-(2-Fluoro-4-(pyridin-2-yloxymethyl)-benzyl)-isoxazol-5-yl)-pyridin-2,6-diamine]",0.39,0.39
"COCc1ccc(-c2cc(Cc3ccc(Cc4ccc(Cl)o4)cc3)no2)c(N)n1 [Example 168, 3-(3-(4-(5-Chloro-furan-2-ylmethyl)-benzyl)-isoxazol-5-yl)-6-methoxymethyl-pyridin-2-ylamine]",0.78,0.78
"Nc1ccc(-c2cc(Cc3ccc(OCc4ccccn4)cc3)no2)c(N)n1 [Example 22, 3-(3-(4-(Pyridin-2-ylmethoxy)-benzyl)-isoxazol-5-yl)-pyridin-2,6-diamine]",0.2,0.39
"Nc1ncccc1-c1cc(Cc2ccc(Oc3cccnc3)cc2)no1 [Example 76, 3-(3-(4-(Pyridin-3-yloxy)-benzyl)-isoxazol-5-yl)-pyridin-2-ylamine]",1.56,1.56
"Nc1ccc(-c2cc(Cc3ccc(OC4CCCCC4)cc3)no2)c(N)n1 [Example 139, 3-(3-(4-Cyclohexyloxy-benzyl)-isoxazol-5-yl)-pyridin-2,6-diamine]",1.56,> 25
"Nc1ncccc1-c1cc(Cc2cccc(OCC3CC3)c2)no1 [Example 66, 3-(3-(3-Cyclopropylmethoxy-benzyl)-isoxazol-5-yl)-pyridin-2-ylamine]",0.1,0.78
